# Results taken from patent US20250214960A1, “COMPOUNDS HAVING ACTIVITY OF DEGRADING GSPT1 AND APPLICATION THEREOF” (SHANGHAI MEIZER PHARMACEUTICALS CO., LTD., priority 2021, published 2025).
# Where two headings read alike, the source gives them in different places.
# Key:
# Format in all cases: cell-based
# GSPT1 protein = molecular target: T1, GSPT1 protein (Homo sapiens, UniProt P15170+Q96SW2); test: Western blot detection of degradation activity of GSPT1 protein in Jeko-1 cells; details: JeKo-1, 24 h, read-out: GSPT1 degradation rate (%)
# T1 construct: endogenous in cells; host or cells: Jeko-1
# Description: Test Example 1: Western Blot Detection of Degradation Activity of GSPT1 Protein by the Compounds
# Cell line: Jeko-1 cell line was cultured with an RPMI1640 media containing 20% fetal bovine serum in an incubator at 37° C., 5% CO2, and saturated humidity.
# DMSO control group and test compound (concentration shown in the table below) were set up, after processing for 24 hours, the cells were collected, pre-cooled cell lysate was added and left on ice for 10 minutes. The total protein of the cells was extracted, and the protein concentration was measured and quantified using the BCA method. Routine gel preparation, sample loading, electrophoresis were conducted, then the membrane was transferred, and sealed, wherein the primary antibody was diluted with a blocking solution at 1:500-5000. The membrane was immersed in the diluted primary antibody and incubated overnight at 4° C. After rinsing, the secondary antibody was diluted with a sealing solution at 1:10000-20000, the membrane was immersed in the diluted secondary antibody, and incubated at room temperature for 45 minutes. After rinsing, the results were tested on ODYSSEY (Li-COR). GAPDH was used as an internal reference control.
# Image J software was used to perform gray level analysis on each band and the degradation rate of GSPT1 protein by the compounds was calculated.
# HNT-34 cells = test: CTG method, inhibition of HNT-34 cell proliferation; details: HNT-34, 72 hours; read-out: Cellular proliferation inhibition IC50
# Description: (§1) Test Example 2: CTG Method for Detecting the Inhibitory Effect of Compounds of Formula on the Proliferation of HNT 34 or HL-60 Cells
# (§2) HNT-34 or HL-60 cells were taken and cultured in RPMI1640 medium containing 20% fetal bovine serum. The cells were inoculated on a 96 well plate, with 1×10^4 cells per well, and incubated at 37° C. in a […] incubator. After adding the test compound, it was incubated for 72 hours. Then an appropriate amount of CTG reagent was added, the luminescence value was measured, and the inhibition rate was calculated.
# HL-60 cells = test: CTG method, inhibition of HL-60 cell proliferation; details: Homo sapiens; HL-60, 72 hours; read-out: Cellular proliferation inhibition IC50
# Description: as §1, §2
# T1 sequence (P15170 whole entry): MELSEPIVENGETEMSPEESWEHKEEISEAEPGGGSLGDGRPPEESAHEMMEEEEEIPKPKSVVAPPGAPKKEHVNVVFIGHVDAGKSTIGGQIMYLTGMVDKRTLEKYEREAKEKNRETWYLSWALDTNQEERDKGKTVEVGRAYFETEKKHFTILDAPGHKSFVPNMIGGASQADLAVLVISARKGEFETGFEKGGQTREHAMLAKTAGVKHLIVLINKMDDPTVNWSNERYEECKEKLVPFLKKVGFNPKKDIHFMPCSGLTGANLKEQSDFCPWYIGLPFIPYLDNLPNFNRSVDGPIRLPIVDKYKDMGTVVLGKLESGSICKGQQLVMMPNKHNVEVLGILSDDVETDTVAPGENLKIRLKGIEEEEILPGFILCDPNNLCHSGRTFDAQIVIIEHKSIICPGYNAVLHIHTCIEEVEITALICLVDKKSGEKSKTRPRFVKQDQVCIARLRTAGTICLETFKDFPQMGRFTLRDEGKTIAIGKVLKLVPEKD
# T1 sequence (Q96SW2 whole entry): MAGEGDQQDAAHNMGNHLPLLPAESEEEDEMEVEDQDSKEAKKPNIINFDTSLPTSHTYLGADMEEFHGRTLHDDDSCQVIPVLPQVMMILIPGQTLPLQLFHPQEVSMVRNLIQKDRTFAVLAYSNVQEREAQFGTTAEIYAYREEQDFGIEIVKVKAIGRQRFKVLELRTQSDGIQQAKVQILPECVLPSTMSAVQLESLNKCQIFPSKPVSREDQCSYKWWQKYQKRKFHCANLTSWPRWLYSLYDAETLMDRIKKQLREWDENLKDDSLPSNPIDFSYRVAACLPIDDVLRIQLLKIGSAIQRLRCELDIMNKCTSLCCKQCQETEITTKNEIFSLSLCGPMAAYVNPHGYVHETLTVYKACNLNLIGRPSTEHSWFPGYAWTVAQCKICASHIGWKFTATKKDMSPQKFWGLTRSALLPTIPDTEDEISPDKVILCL
# T1 sequence (Q16531 whole entry partner): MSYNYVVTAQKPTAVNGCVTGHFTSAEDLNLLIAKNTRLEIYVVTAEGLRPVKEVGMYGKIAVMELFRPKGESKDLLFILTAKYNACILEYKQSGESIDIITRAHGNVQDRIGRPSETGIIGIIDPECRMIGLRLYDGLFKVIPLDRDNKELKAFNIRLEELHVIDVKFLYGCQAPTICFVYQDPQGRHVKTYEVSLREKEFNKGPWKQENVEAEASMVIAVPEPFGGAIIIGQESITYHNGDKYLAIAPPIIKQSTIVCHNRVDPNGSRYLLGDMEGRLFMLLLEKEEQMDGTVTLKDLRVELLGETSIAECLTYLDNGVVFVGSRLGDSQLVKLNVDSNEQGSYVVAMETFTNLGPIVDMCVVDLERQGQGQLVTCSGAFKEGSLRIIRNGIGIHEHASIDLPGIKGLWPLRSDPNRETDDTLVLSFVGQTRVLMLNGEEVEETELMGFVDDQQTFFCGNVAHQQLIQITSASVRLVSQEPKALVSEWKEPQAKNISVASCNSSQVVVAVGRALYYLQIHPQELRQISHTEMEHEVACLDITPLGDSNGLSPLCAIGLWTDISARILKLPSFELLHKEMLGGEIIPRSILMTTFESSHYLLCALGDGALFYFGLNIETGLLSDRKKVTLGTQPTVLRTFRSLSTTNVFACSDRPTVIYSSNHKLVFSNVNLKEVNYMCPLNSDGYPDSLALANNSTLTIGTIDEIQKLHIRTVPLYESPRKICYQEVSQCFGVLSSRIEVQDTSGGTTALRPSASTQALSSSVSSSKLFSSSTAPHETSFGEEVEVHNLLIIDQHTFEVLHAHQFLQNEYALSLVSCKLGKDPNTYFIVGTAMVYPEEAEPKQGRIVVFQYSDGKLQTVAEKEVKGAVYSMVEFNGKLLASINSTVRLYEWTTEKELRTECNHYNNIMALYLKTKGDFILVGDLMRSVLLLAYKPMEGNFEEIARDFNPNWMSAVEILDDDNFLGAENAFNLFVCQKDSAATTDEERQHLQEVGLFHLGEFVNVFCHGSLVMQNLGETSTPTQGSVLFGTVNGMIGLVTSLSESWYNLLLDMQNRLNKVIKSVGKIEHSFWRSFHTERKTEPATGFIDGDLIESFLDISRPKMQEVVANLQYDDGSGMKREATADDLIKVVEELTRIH
IC50 (HL-60 cells) [nM],"inhibition at 0.1 µM (GSPT1 protein; 100 nM, Jeko-1 cells, 24 hours) [%]","inhibition at 10 µM (GSPT1 protein; 10 μM, Jeko-1 cells, 24 hours) [%]",SMILES,IC50 (HNT-34 cells) [nM],other results
11,97,98,"CC[C@H](C)[C@@H](CC(=O)NCc1ccc2c(c1)CN(C1CCC(=O)NC1=O)C2=O)NC(=O)OC(C)(C)C (stereo partly drawn) [Compound 5-97, Tert butyl ((3R,4S)-1-((2-(2,6-dioxypiperidin-3-yl)-1-oxoisoidoline-5-yl)methyl)amino)-4-methyl-1-oxohexane-3-yl) carbamate]",6.9,–
6.9,94.9,96.9,CN(C(=O)CC1CCCC1)[C@H](C(=O)NCc1ccc2c(c1)CN(C1CCC(=O)NC1=O)C2=O)c1ccccc1 (some centres unmarked) [Compound 5-50],5.8,–
12.4,94,100,"CC(C)(C)OC(=O)N[C@H](C(=O)NCc1ccc2c(c1)CN(C1CCC(=O)NC1=O)C2=O)c1ccc(Br)cc1 (stereo partly drawn) [Compound 5-7, Tert butyl ((1S)-1-(4-bromophenyl)-2-((2-(2,6-dioxopyridin-3-yl)-1-oxoisoidoline-5-yl)methyl)amino)-2-oxoethyl) carbamate]",8.7,–
–,70,97,"O=C1CCC(N2Cc3cc(CNC(=O)C(NC(=O)CC4CCCC4)c4ccccc4)ccc3C2=O)C(=O)N1 (centres unmarked) [Compound 5-29, 2-(2-cyclopentylacetamido)-N-((2-(2,6-dioxopyridin-3-yl)-1-oxoisoidoline-5-yl)methyl)-2-phenylacetamide]",–,–
–,52.7,82.7,"CC(C)C[C@H](NC(=O)OC(C)(C)C)C(=O)NCc1ccc2c(c1)CN(C1CCC(=O)NC1=O)C2=O (stereo partly drawn) [Compound 5-84, Tert butyl ((2S)-1-((2-(2,6-dioxypiperidin-3-yl)-1-oxoisoidoline-5-yl)methyl)amino)-4-methyl-1-oxapent-2-yl) carbamate]",–,–
–,65.2,84.6,"CN(C(=O)OC(C)(C)C)C(C(=O)NCc1ccc2c(c1)CN(C1CCC(=O)NC1=O)C2=O)c1ccc(Cl)c(Cl)c1 (centres unmarked) [Compound 5-76, Tert butyl (1-(3,4-dichlorophenyl)-2-((2-(2,6-dioxopyridin-3-yl)-1-oxoisoidoline-5-yl)methyl)amino)-2-oxoethyl (methyl) carbamate]",–,–
–,11.6,87.9,"CC(C)(C)OC(=O)N[C@@H](CC(N)=O)C(=O)NCc1ccc2c(c1)CN(C1CCC(=O)NC1=O)C2=O (stereo partly drawn) [Compound 5-43, Tert butyl ((2S)-4-amino-1-((2-(2,6-dioxypiperidin-3-yl)-1-oxoisoindolin-5-yl)methyl)amino)-1,4-dioxobutane-2-yl) carbamate]",–,–
–,41.3,87.1,O=C1CCC(N2Cc3cc(CNC(=O)[C@H](CC4CCCCC4)NC(=O)C4CCCC4)ccc3C2=O)C(=O)N1 (some centres unmarked) [Compound 5-54],–,–

# The remaining lines, values behind:
SMILES,IC50 (HL-60 cells) [nM],"inhibition at 0.1 µM (GSPT1 protein; 100 nM, Jeko-1 cells, 24 hours) [%]","inhibition at 10 µM (GSPT1 protein; 10 μM, Jeko-1 cells, 24 hours) [%]",IC50 (HNT-34 cells) [nM],other results
"CC(C)OC(=O)N[C@@H](CC1CCCCC1)C(=O)NCc1ccc2c(c1)CN(C1CCC(=O)NC1=O)C2=O (stereo partly drawn) [Compound 5-94, Isopropyl ((2S)-3-cyclohexyl-1-((2-(2,6-dioxypiperidin-3-yl)-1-oxoisoindolin-5-yl)methyl)amino)-1-oxopropan-2-yl) carbamate]",12.8,–,–,7.4,inhibition at 0.1 µM (GSPT1 protein): 85%; inhibition at 10 µM (GSPT1 protein): 95%
"Cc1ccc([C@H](NC(=O)OC(C)(C)C)C(=O)NCc2ccc3c(c2)CN(C2CCC(=O)NC2=O)C3=O)cc1 (stereo partly drawn) [Compound 4-166, Tert butyl ((1S)-2-((2-(2,6-dioxypiperidin-3-yl)-1-oxoisoindoline-5-yl)methyl)amino)-2-oxo-1-(p-tolyl) ethyl) carbamate]",12.8,82,93,11.3,–
"CC(C)(C)OC(=O)NC(C(=O)NCc1ccc2c(c1)CN(C1CCC(=O)NC1=O)C2=O)c1ccccc1Cl (centres unmarked) [Compound 4-200, Tert butyl (1-(2-chlorophenyl)-2-((2-(2,6-dioxypiperidin-3-yl)-1-oxoisoindoline-5-yl)methyl)amino)-2-oxoethyl) carbamate]",8.3,99,100,3.2,–
"CCN(C(=O)OC(C)(C)C)[C@H](C(=O)NCc1ccc2c(c1)CN(C1CCC(=O)NC1=O)C2=O)c1ccccc1 (stereo partly drawn) [Compound 1-89, Tert butyl ((1S)-2-((2-(2,6-dioxypiperidin-3-yl)-1-oxoisoindoline-5-yl)methyl)amino)-2-oxo-1-phenylethy 1) (ethyl) carbamate]",5,97.8,98.7,3.8,–
"CC(C)C[C@@H](NC(=O)OC(C)(C)C)C(=O)NCc1ccc2c(c1)CN(C1CCC(=O)NC1=O)C2=O (stereo partly drawn) [Compound 4-123, Tert butyl ((2R)-1-((2-(2,6-dioxypiperidin-3-yl)-1-oxoidoline-5-yl)methyl)amino)-4-methyl-1-oxolan-2-yl) carbamate]",28.9,79.9,92.7,26.9,–
"CN(C(=O)OC(C)(C)C)[C@H](C(=O)NCc1ccc2c(c1)CN(C1CCC(=O)NC1=O)C2=O)c1ccccc1 (stereo partly drawn) [Compound 4-135, Tert butyl ((1S)-2-((2-(2,6-dioxypiperidin-3-yl)-1-oxoisoindoline-5-yl)methyl)amino)-2-oxo-1-phenylethy 1) (methyl) carbamate]",14.3,80,93,6.2,–
"CC(C)(C)OC(=O)N[C@H](C(=O)NCc1ccc2c(c1)CN([C@H]1CCC(=O)NC1=O)C2=O)c1ccccc1Cl [Compound 5-17b, Tert butyl ((1S)-1-(2-chlorophenyl)-2-((2-((S)-2,6-dioxopyridin-3-yl)-1-oxoisoidoline-5-yl)methyl)amino)-2-oxoethyl) carbamate]",4.6,–,–,–,"inhibition at 0.01 µM (GSPT1 protein; 10 nM, Jeko-1 cells, 24 hours): 57%; inhibition at 1 µM (GSPT1 protein; 1 μM, Jeko-1 cells, 24 hours): 100%"
"O=C1CCC(N2Cc3cc(CNC(=O)C(CNC(=O)Oc4ccccc4)c4ccccc4)ccc3C2=O)C(=O)N1 (centres unmarked) [Compound 5-10, Phenyl (3-((2-(2,6-dioxypiperidin-3-yl)-1-oxoisoindolin-5-yl)methyl)amino)-3-oxo-2-phenylpropyl) carbamate]",37.7,–,–,36.9,inhibition at 0.1 µM (GSPT1 protein): 73%; inhibition at 10 µM (GSPT1 protein): 90%
"O=C1CCC(N2Cc3cc(CNC(=O)[C@@H](NC(=O)OC4CCOC4)c4ccccc4)ccc3C2=O)C(=O)N1 (stereo partly drawn) [Compound 6-01, ((1S)-2-(((2-(2,6-dioxopyridin-3-yl)-1-oxoisoindoline-5-yl)methyl)amino)-2-oxo-1-phenylethyl) carbamate-β-Oxocyclopentanol Ester]",–,–,–,–,inhibition at 0.01 µM (GSPT1 protein): 10%; inhibition at 1 µM (GSPT1 protein): 68%
"CC(C)(C)OC(=O)N[C@@H](C(=O)NCc1ccc2c(c1)CN(C1CCC(=O)NC1=O)C2=O)c1ccccc1 (stereo partly drawn) [Compound 4-108, Tert butyl ((1R)-2-((2-(2-(2,6-Dioxopiperidin-3-yl)-1-oxoisoindolin-5-yl)methyl)amino)-2-oxo-1-phenylethyl) carbamate]",–,–,–,–,"inhibition at 0.01 µM (GSPT1 protein; 10 nM, Jeko-1 cells, 24 hours): 10%; inhibition at 1 µM (GSPT1 protein; 1 μM, Jeko-1 cells, 24 hours): 95%"
CC(C)(C)OC(=O)NCC(C(=O)NCc1ccc2c(c1)CN(C1CCC(=O)NC1=O)C2=O)c1ccccc1 (centres unmarked) [Compound 4-131],–,96,97,–,–
"O=C1CCC(N2Cc3cc(CNC(=O)[C@@H](NC(=O)OCc4ccccc4)c4ccccc4)ccc3C2=O)C(=O)N1 (stereo partly drawn) [Compound 4-139, Benzyl ((1S)-2-((2-(2,6-dioxypiperidin-3-yl)-1-oxoisoindoline-5-yl)methyl)amino)-2-oxo-1-phenylethyl) carbamate]",–,98,97,–,–
O=C1CCC(N2Cc3cc(CNC(=O)C(CNC(=O)c4ccccc4)c4ccccc4)ccc3C2=O)C(=O)N1 (centres unmarked) [Compound 5-26],–,–,–,–,inhibition at 0.1 µM (GSPT1 protein): 33%; inhibition at 10 µM (GSPT1 protein): 98%
"CC(C)(C)OC(=O)N[C@H](C(=O)NCc1ccc2c(c1)CN(C1CCC(=O)NC1=O)C2=O)c1ccc(F)cc1 (stereo partly drawn) [Compound 4-136, Tert butyl ((1S)-2-((2-(2,6-dioxypiperidin-3-yl)-1-oxoisoidoline-5-yl)methyl)amino)-1-(4-fluorophenyl)-2-oxoethyl) carbamate]",–,82,97,3.6,–
CC(C)[C@@H]1CC[C@@H](C)C[C@H]1OC(=O)N[C@H](C(=O)NCc1ccc2c(c1)CN(C1CCC(=O)NC1=O)C2=O)c1ccccc1 (some centres unmarked) [Compound 4-175b],–,–,–,–,inhibition at 0.01 µM (GSPT1 protein): 98%; inhibition at 1 µM (GSPT1 protein): 99%
